Literature values in US20240024337A1, “INTERACTION OF SARS-COV-2 PROTEINS WITH MOLECULAR AND […] […] HOST CELLS AND FORMULATIONS TO TREAT COVID-19” (AKSEERA PHARMA CORP., priority 2020, published 2024).

System: HT22 hippocampal neurons
Conditions: 5 μM; oxygen-glucose deprivation

## C=C(C)[C@@H]1CCC(C)=C[C@H]1c1c(O)cc(CCCCC)cc1O [Cannabidiol, 2-[(1R,6R)-3-Methyl-6-(1-methylethenyl)-2-cyclohexen-1-yl]-5-pentyl-1,3-benzenediol]
  apoptosis and oxidative stress: significantly attenuated
